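Cells were grown in 96-well plates and exposed to each compound for 48 hours at five concentrations; endpoints were interpolated linearly between bracketing concentrations, or set to the highest concentration if not reached. TGI: total growth inhibition.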

This is an account of results in PubChem BioAssay (NCI).

Test systems include HCC-2998 colon; U251 CNS; SW-620 colon; RPMI-8226 leukemia; LOX IMVI melanoma; UO-31 renal; BT-549 breast; K-562 leukemia; SNB-75 CNS; CCRF-CEM leukemia.
Common to all, as to experiment: DTP human tumour cell line panel, 48 h

Regarding `O=C(Cn1c(C(=O)/C=C/c2cccs2)nc2ccccc21)c1ccc(Cl)cc1`, the total growth inhibition concentration (TGI) – broadly, the concentration giving total growth inhibition – in the experiment with HCC-2998 colon is 29.8 µM; with U251 CNS, 30.3 µM; in the experiment on SW-620 colon it was > 100 µM; with RPMI-8226 leukemia, 29.3 µM; with LOX IMVI melanoma it was 27.3 µM; in the experiment with UO-31 renal it was 69.6 µM. For the same compound, the TGI in the experiment with BT-549 breast is 63.6 µM; with K-562 leukemia it was 45.7 µM; with SNB-75 CNS it was > 100 µM.

On to `Cc1ccc2c(c1C)C(=O)/C(=C/c1ccccc1C(=O)O)C2`, for which the total growth inhibition concentration (TGI) in the experiment with HCC-2998 colon, in the experiment with U251 CNS, with SW-620 colon, in the experiment with RPMI-8226 leukemia, in the experiment with CCRF-CEM leukemia and with LOX IMVI melanoma was > 100 µM throughout. Besides, the TGI in the experiment on UO-31 renal, in the experiment on BT-549 breast, with K-562 leukemia and in the experiment on SNB-75 CNS was > 100 µM each time.

Consider `C#CCSC(C=C=C)P(=O)(OC(C)C)OC(C)C` (configuration not stated), for which the TGI was 75.1 µM with HCC-2998 colon; > 100 µM in the experiment on U251 CNS; > 100 µM with SW-620 colon; > 100 µM in the experiment with RPMI-8226 leukemia; > 100 µM in the experiment on LOX IMVI melanoma; > 100 µM with UO-31 renal. Further, the TGI with BT-549 breast was 82.8 µM; in the experiment with K-562 leukemia it was 68.4 µM; with SNB-75 CNS it was > 100 µM.

Regarding `COC(=O)[C@H]1CO[C@H]2C/C(C)=C/CC/C(C)=C/CC[C@@]3(C)O[C@@H]3C[C@H]21`, the total growth inhibition concentration (TGI) in the experiment with HCC-2998 colon is 17.9 µM; with U251 CNS, > 50 µM; in the experiment with SW-620 colon, 24.2 µM; in the experiment with RPMI-8226 leukemia, > 50 µM; in the experiment on CCRF-CEM leukemia, 28.1 µM; in the experiment with UO-31 renal, > 50 µM. The TGI was found to be 33.8 µM in the experiment on BT-549 breast, 16.1 µM in the experiment with K-562 leukemia and 39.2 µM in the experiment with SNB-75 CNS.

`CSc1n[nH]c(N)c1C(=O)Nc1ccc(C)cc1`: the TGI with HCC-2998 colon, in the experiment with U251 CNS, with SW-620 colon, with RPMI-8226 leukemia, with CCRF-CEM leukemia and in the experiment with LOX IMVI melanoma was > 100 µM throughout. The total growth inhibition concentration (TGI) in the experiment on UO-31 renal, in the experiment on BT-549 breast and in the experiment on K-562 leukemia was > 100 µM each time.

With `COC(=O)c1c(OC(C)=O)ccc2c1c1c(n2C)C(=O)c2ccccc2C1=O`, the TGI was 63.5 µM in the experiment on HCC-2998 colon; > 100 µM in the experiment with U251 CNS; 28 µM in the experiment with RPMI-8226 leukemia; > 100 µM in the experiment on UO-31 renal; 57 µM with BT-549 breast; > 100 µM in the experiment with K-562 leukemia. Also, the TGI in the experiment on SNB-75 CNS was determined as 41.3 µM.

On to `COc1ccc(-c2cc(-c3ccc(Nc4ccnc5cc(Cl)ccc45)cc3)[nH]c(=O)c2C#N)c2ccccc12`, for which the TGI is > 92.9 µM with HCC-2998 colon; > 100 µM in the experiment with SW-620 colon; 7.28 µM in the experiment on RPMI-8226 leukemia; > 100 µM in the experiment with CCRF-CEM leukemia; 15.2 µM in the experiment on UO-31 renal; 71.7 µM in the experiment on BT-549 breast. Moreover, the TGI stood at 6.35 µM in the experiment on K-562 leukemia and 95.4 µM in the experiment with SNB-75 CNS.

For `C(CCCCc1nnc(N2CCCCC2)o1)CCCc1nnc(N2CCCCC2)o1`, the concentration for total growth inhibition (TGI) in the experiment with HCC-2998 colon, with U251 CNS, with SW-620 colon, with CCRF-CEM leukemia, in the experiment with LOX IMVI melanoma and in the experiment with UO-31 renal was > 100 µM each time. In addition, the TGI with BT-549 breast, with K-562 leukemia and with SNB-75 CNS was > 100 µM each time.

Regarding `c1cn(C23C4C5C6C4C2C6C53)cn1` (configuration not stated), the TGI with HCC-2998 colon, in the experiment with U251 CNS, in the experiment with SW-620 colon, in the experiment with RPMI-8226 leukemia, in the experiment on CCRF-CEM leukemia and in the experiment on LOX IMVI melanoma was > 100 µM in each case. Besides, the TGI in the experiment with BT-549 breast, in the experiment on K-562 leukemia and with SNB-75 CNS was > 100 µM each time.

For `c1ccc2c(c1)CCc1c-2n(CCN2CCOCC2)c2ccccc12`, the TGI is > 100 µM with HCC-2998 colon; > 100 µM in the experiment on U251 CNS; > 100 µM with SW-620 colon; > 100 µM in the experiment with RPMI-8226 leukemia; 61.5 µM in the experiment on CCRF-CEM leukemia; > 100 µM with LOX IMVI melanoma. Moreover, the TGI in the experiment with UO-31 renal, with BT-549 breast and with K-562 leukemia was > 100 µM throughout.

As for `COC1OC2COC1(OC)C1OC(C)(C)OC21` (configuration not stated), the TGI in the experiment with HCC-2998 colon, in the experiment with U251 CNS, in the experiment on SW-620 colon, in the experiment on RPMI-8226 leukemia, in the experiment with CCRF-CEM leukemia and in the experiment with UO-31 renal was > 100 µM in each case. Further, the TGI in the experiment on BT-549 breast, in the experiment with K-562 leukemia and with SNB-75 CNS was > 100 µM throughout.

For `CCCCCC(C)SC1(C(=O)OC)CC(OC(C)=O)C(NC(C)=O)C([C@H](OC(C)=O)[C@@H](COC(C)=O)OC(C)=O)O1` (some centres not stated), the total growth inhibition concentration (TGI) in the experiment with HCC-2998 colon, in the experiment on U251 CNS, with SW-620 colon, in the experiment with RPMI-8226 leukemia, in the experiment on UO-31 renal and with BT-549 breast was > 100 µM each time. In addition, the TGI with K-562 leukemia and with SNB-75 CNS was > 100 µM each time.

Turning to `Cc1c(NC(=O)CSC(=S)N2CCN(Cc3ccccc3)CC2)c(=O)n(-c2ccccc2)n1C`, the TGI in the experiment on HCC-2998 colon, in the experiment with U251 CNS, in the experiment with SW-620 colon, in the experiment with RPMI-8226 leukemia, with CCRF-CEM leukemia and in the experiment with LOX IMVI melanoma was > 100 µM each time. Also, the total growth inhibition concentration (TGI) in the experiment with UO-31 renal, in the experiment with BT-549 breast and in the experiment on K-562 leukemia was > 100 µM in each case.

For `COc1cc(/C=C2/C[C@H]3[C@@H]4CC=C5C[C@@H](OC(C)=O)CC[C@]5(C)[C@H]4CC[C@]3(C)NC2=O)cc(OC)c1OC`, the TGI is > 100 µM in the experiment with HCC-2998 colon; 46.5 µM in the experiment with U251 CNS; > 100 µM in the experiment on SW-620 colon; > 100 µM with CCRF-CEM leukemia; > 100 µM with LOX IMVI melanoma; 50.2 µM in the experiment with UO-31 renal. The TGI is 55 µM in the experiment with BT-549 breast, > 100 µM with K-562 leukemia and 47.3 µM in the experiment on SNB-75 CNS.

For the compound `CC1=NN(c2nc(N)nc(/C(C#N)=C/c3cccn3-c3cc(Cl)cc(Cl)c3)n2)C(C)(C)C1`, the TGI in the experiment on HCC-2998 colon was > 100 µM; with U251 CNS, 28.3 µM; with SW-620 colon, > 100 µM; with RPMI-8226 leukemia it was > 100 µM; in the experiment on CCRF-CEM leukemia, > 100 µM; in the experiment with LOX IMVI melanoma it was > 100 µM. Besides, the TGI is > 100 µM in the experiment on UO-31 renal, > 100 µM in the experiment with BT-549 breast and 99.7 µM in the experiment with SNB-75 CNS.
